Measurements published in the CheMixHub viscosity set.
± gives the uncertainty stated by the source.

Assay: xn = mol fraction of the nth substance listed

`[Ca+2].[Cl-].[Cl-]` + O gave a viscosity (293.15 K, 101 kPa, x1 = 0.059) of 2.97 ± 0.08 mPa·s, a viscosity (298.15 K, 101 kPa, x1 = 0.000396) of 0.8977 ± 0.019 mPa·s and a viscosity (298.15 K, 101 kPa, x1 = 0.00043) of 0.8982 ± 0.019 mPa·s. For the same compound, the viscosity (298.15 K, 101 kPa, x1 = 0.00081) was 0.9042 ± 0.019 mPa·s, the viscosity (298.15 K, 101 kPa, x1 = 0.000844) was 0.9046 ± 0.019 mPa·s and the viscosity (298.15 K, 101 kPa, x1 = 0.00106) was 0.9082 ± 0.019 mPa·s. It also gave a viscosity (298.15 K, 101 kPa, x1 = 0.00107) of 0.9081 ± 0.019 mPa·s, a viscosity (298.15 K, 101 kPa, x1 = 0.00123) of 0.9106 ± 0.019 mPa·s and a viscosity (298.15 K, 101 kPa, x1 = 0.0013) of 0.9117 ± 0.019 mPa·s. It also gave a viscosity (298.15 K, 101 kPa, x1 = 0.00147) of 0.9145 ± 0.019 mPa·s, a viscosity (298.15 K, 101 kPa, x1 = 0.00151) of 0.9149 ± 0.019 mPa·s and a viscosity (298.15 K, 101 kPa, x1 = 0.00175) of 0.9186 ± 0.019 mPa·s. The viscosity (298.15 K, 101 kPa, x1 = 0.002367) was 0.9277 ± 0.019 mPa·s, the viscosity (298.15 K, 101 kPa, x1 = 0.002527) was 0.9302 ± 0.019 mPa·s and the viscosity (298.15 K, 101 kPa, x1 = 0.002586) was 0.9311 ± 0.019 mPa·s. The viscosity (298.15 K, 101 kPa, x1 = 0.003329) was 0.9425 ± 0.02 mPa·s, the viscosity (298.15 K, 101 kPa, x1 = 0.003395) was 0.9435 ± 0.02 mPa·s and the viscosity (298.15 K, 101 kPa, x1 = 0.003497) was 0.945 ± 0.02 mPa·s. It also gave a viscosity (298.15 K, 101 kPa, x1 = 0.003672) of 0.9476 ± 0.02 mPa·s, a viscosity (298.15 K, 101 kPa, x1 = 0.004546) of 0.9609 ± 0.02 mPa·s and a viscosity (298.15 K, 101 kPa, x1 = 0.004721) of 0.9637 ± 0.02 mPa·s. It also gave a viscosity (298.15 K, 101 kPa, x1 = 0.005244) of 0.9719 ± 0.02 mPa·s, a viscosity (298.15 K, 101 kPa, x1 = 0.006244) of 0.9873 ± 0.021 mPa·s and a viscosity (298.15 K, 101 kPa, x1 = 0.007041) of 1 ± 0.021 mPa·s. For the same compound, the viscosity (298.15 K, 101 kPa, x1 = 0.007167) was 1.002 ± 0.021 mPa·s, the viscosity (298.15 K, 101 kPa, x1 = 0.007446) was 1.006 ± 0.021 mPa·s and the viscosity (298.15 K, 101 kPa, x1 = 0.008695) was 1.027 ± 0.021 mPa·s. It also gave a viscosity (298.15 K, 101 kPa, x1 = 0.009449) of 1.039 ± 0.022 mPa·s, a viscosity (298.15 K, 101 kPa, x1 = 0.009885) of 1.046 ± 0.022 mPa·s and a viscosity (298.15 K, 101 kPa, x1 = 0.01022) of 1.052 ± 0.022 mPa·s. It also gave a viscosity (298.15 K, 101 kPa, x1 = 0.01042) of 1.055 ± 0.022 mPa·s, a viscosity (298.15 K, 101 kPa, x1 = 0.01059) of 1.058 ± 0.022 mPa·s and a viscosity (298.15 K, 101 kPa, x1 = 0.01077) of 1.061 ± 0.022 mPa·s. For the same compound, the viscosity (298.15 K, 101 kPa, x1 = 0.01094) was 1.064 ± 0.022 mPa·s, the viscosity (298.15 K, 101 kPa, x1 = 0.01192) was 1.081 ± 0.023 mPa·s and the viscosity (298.15 K, 101 kPa, x1 = 0.01272) was 1.095 ± 0.023 mPa·s. The viscosity (298.15 K, 101 kPa, x1 = 0.01378) was 1.114 ± 0.023 mPa·s, the viscosity (298.15 K, 101 kPa, x1 = 0.01401) was 1.118 ± 0.023 mPa·s and the viscosity (298.15 K, 101 kPa, x1 = 0.01513) was 1.139 ± 0.024 mPa·s. It also gave a viscosity (298.15 K, 101 kPa, x1 = 0.01538) of 1.143 ± 0.024 mPa·s, a viscosity (298.15 K, 101 kPa, x1 = 0.01928) of 1.219 ± 0.025 mPa·s and a viscosity (298.15 K, 101 kPa, x1 = 0.02043) of 1.243 ± 0.026 mPa·s. The viscosity (298.15 K, 101 kPa, x1 = 0.02048) was 1.244 ± 0.026 mPa·s, the viscosity (298.15 K, 101 kPa, x1 = 0.02097) was 1.254 ± 0.026 mPa·s and the viscosity (298.15 K, 101 kPa, x1 = 0.02327) was 1.304 ± 0.027 mPa·s. The viscosity (298.15 K, 101 kPa, x1 = 0.02529) was 1.35 ± 0.028 mPa·s, the viscosity (298.15 K, 101 kPa, x1 = 0.02589) was 1.364 ± 0.028 mPa·s and the viscosity (298.15 K, 101 kPa, x1 = 0.0267) was 1.383 ± 0.029 mPa·s. For the same compound, the viscosity (298.15 K, 101 kPa, x1 = 0.027) was 1.391 ± 0.029 mPa·s, the viscosity (298.15 K, 101 kPa, x1 = 0.02942) was 1.451 ± 0.03 mPa·s and the viscosity (298.15 K, 101 kPa, x1 = 0.02988) was 1.464 ± 0.03 mPa·s. The viscosity (298.15 K, 101 kPa, x1 = 0.03066) was 1.484 ± 0.031 mPa·s, the viscosity (298.15 K, 101 kPa, x1 = 0.03069) was 1.485 ± 0.031 mPa·s and the viscosity (298.15 K, 101 kPa, x1 = 0.0311) was 1.496 ± 0.031 mPa·s. For the same compound, the viscosity (298.15 K, 101 kPa, x1 = 0.03274) was 1.541 ± 0.032 mPa·s, the viscosity (298.15 K, 101 kPa, x1 = 0.03315) was 1.553 ± 0.032 mPa·s and the viscosity (298.15 K, 101 kPa, x1 = 0.03378) was 1.572 ± 0.033 mPa·s. For the same compound, the viscosity (298.15 K, 101 kPa, x1 = 0.03442) was 1.59 ± 0.033 mPa·s, the viscosity (298.15 K, 101 kPa, x1 = 0.03633) was 1.648 ± 0.034 mPa·s and the viscosity (298.15 K, 101 kPa, x1 = 0.03656) was 1.654 ± 0.035 mPa·s. The viscosity (298.15 K, 101 kPa, x1 = 0.03673) was 1.66 ± 0.035 mPa·s, the viscosity (298.15 K, 101 kPa, x1 = 0.03831) was 1.711 ± 0.036 mPa·s and the viscosity (298.15 K, 101 kPa, x1 = 0.03856) was 1.719 ± 0.036 mPa·s. The viscosity (298.15 K, 101 kPa, x1 = 0.04162) was 1.824 ± 0.038 mPa·s, the viscosity (298.15 K, 101 kPa, x1 = 0.04322) was 1.883 ± 0.039 mPa·s and the viscosity (298.15 K, 101 kPa, x1 = 0.04455) was 1.933 ± 0.04 mPa·s. The viscosity (298.15 K, 101 kPa, x1 = 0.04537) was 1.967 ± 0.041 mPa·s, the viscosity (298.15 K, 101 kPa, x1 = 0.04781) was 2.068 ± 0.043 mPa·s and the viscosity (298.15 K, 101 kPa, x1 = 0.04866) was 2.105 ± 0.044 mPa·s. For the same compound, the viscosity (298.15 K, 101 kPa, x1 = 0.0498) was 2.157 ± 0.045 mPa·s, the viscosity (298.15 K, 101 kPa, x1 = 0.0506) was 2.194 ± 0.046 mPa·s and the viscosity (298.15 K, 101 kPa, x1 = 0.0536) was 2.342 ± 0.049 mPa·s. For the same compound, the viscosity (298.15 K, 101 kPa, x1 = 0.05494) was 2.412 ± 0.051 mPa·s, the viscosity (298.15 K, 101 kPa, x1 = 0.05842) was 2.611 ± 0.055 mPa·s and the viscosity (298.15 K, 101 kPa, x1 = 0.06081) was 2.761 ± 0.058 mPa·s. For the same compound, the viscosity (298.15 K, 101 kPa, x1 = 0.06128) was 2.791 ± 0.059 mPa·s, the viscosity (298.15 K, 101 kPa, x1 = 0.065) was 3.054 ± 0.064 mPa·s and the viscosity (298.15 K, 101 kPa, x1 = 0.06579) was 3.114 ± 0.066 mPa·s. For the same compound, the viscosity (298.15 K, 101 kPa, x1 = 0.06654) was 3.173 ± 0.067 mPa·s, the viscosity (298.15 K, 101 kPa, x1 = 0.06668) was 3.182 ± 0.067 mPa·s and the viscosity (298.15 K, 101 kPa, x1 = 0.07055) was 3.515 ± 0.074 mPa·s. For the same compound, the viscosity (298.15 K, 101 kPa, x1 = 0.07902) was 4.414 ± 0.093 mPa·s, the viscosity (298.15 K, 101 kPa, x1 = 0.08019) was 4.563 ± 0.096 mPa·s and the viscosity (298.15 K, 101 kPa, x1 = 0.08048) was 4.6 ± 0.097 mPa·s. The viscosity (298.15 K, 101 kPa, x1 = 0.08806) was 5.733 ± 0.12 mPa·s, the viscosity (298.15 K, 101 kPa, x1 = 0.08818) was 5.754 ± 0.12 mPa·s and the viscosity (298.15 K, 101 kPa, x1 = 0.09192) was 6.437 ± 0.14 mPa·s. It also gave a viscosity (298.15 K, 101 kPa, x1 = 0.09327) of 6.707 ± 0.14 mPa·s, a viscosity (298.15 K, 101 kPa, x1 = 0.09562) of 7.209 ± 0.15 mPa·s and a viscosity (298.15 K, 101 kPa, x1 = 0.09975) of 8.198 ± 0.17 mPa·s. The viscosity (298.15 K, 101 kPa, x1 = 0.1012) was 8.586 ± 0.18 mPa·s, the viscosity (298.15 K, 101 kPa, x1 = 0.1071) was 10.34 ± 0.22 mPa·s and the viscosity (298.15 K, 101 kPa, x1 = 0.1099) was 11.29 ± 0.24 mPa·s. The viscosity (298.15 K, 101 kPa, x1 = 0.1131) was 12.5 ± 0.27 mPa·s, the viscosity (298.15 K, 101 kPa, x1 = 0.1167) was 14.03 ± 0.3 mPa·s and the viscosity (298.15 K, 101 kPa, x1 = 0.1168) was 14.08 ± 0.3 mPa·s. The viscosity (298.15 K, 101 kPa, x1 = 0.1185) was 14.84 ± 0.32 mPa·s, the viscosity (298.15 K, 101 kPa, x1 = 0.1243) was 17.82 ± 0.38 mPa·s and the viscosity (298.15 K, 101.3 kPa, x1 = 0.03478) was 1.609 ± 0.034 mPa·s. The viscosity (298.15 K, 101.3 kPa, x1 = 0.05127) was 2.238 ± 0.047 mPa·s.
